Data taken from ChEMBL document CHEMBL4334533, “Design, synthesis, and validation of novel nitrogen-based chalcone analogs against triple negative breast cancer” (Eur J Med Chem, 2020).
Activity calls are given as the source filed them. The calls are words filed in the database; no cut-off is given here.

Tests used:
[1] = system: MDA-MB-231; experiment: Antimigratory activity in human MDA-MB-231 cells assessed as wound diameter at 5 uM measured after 24 hrs by microscopic analysis; type: functional, cell-based
[2] = system: MDA-MB-231; experiment: Antimigratory activity in human MDA-MB-231 cells assessed as inhibition of cell motility after 24 hrs by microscopic analysis; type: functional, cell-based; conditions: MDA-MB-231, 24 h
[3] = system: MDA-MB-231; experiment: Inhibition of anchorage-independent colony formation in human MDA-MB-231 cells at 5 uM measured upto 21 days by soft agar colony formation assay; type: functional, cell-based
[4] = system: MDA-MB-468; experiment: Inhibition of anchorage-independent colony formation in human MDA-MB-468 cells at 5 uM measured upto 21 days by soft agar colony formation assay; type: functional, cell-based
[5] = system: MCF7; experiment: Inhibition of anchorage-independent colony formation in human MCF7 cells at 5 uM measured upto 21 days by soft agar colony formation assay; type: functional, cell-based
[6] = system: Chorioallantoic membrane; experiment: Antiangiogenic activity in Leghorn chicken fertilized egg chorioallantoic membrane assessed as reduction in number of blood vessels at 4 ug measured after 4 days by microscopic analysis; type: functional, tissue-based; conditions: Gallus gallus

SMILES	Activity [1]	IC50 [2] [nM]	inhibition [3]	colony formation inhibition (active/inactive) [4]	colony formation inhibition (activity call) [5]	Activity [6]
CC(=O)O[C@H]1C(=O)[C@@]2(C)[C@H]([C@H](OC(=O)c3ccccc3)[C@]3(O)C[C@H](OC(=O)[C@H](O)[C@@H](NC(=O)c4ccccc4)c4ccccc4)C(C)=C1C3(C)C)[C@]1(OC(C)=O)CO[C@@H]1C[C@@H]2O [PACLITAXEL]	Active	2010	Active	Active	Active	
COc1cccc(C(=O)/C=C/c2ccc(N3CCCC3)cc2)c1	Active	1990				
CSc1ccc(C(=O)/C=C/c2ccc(N3CCOCC3)cc2)cc1	Active	4800				Active
COc1ccccc1C(=O)/C=C/c1ccc(N(CCCl)CCCl)cc1	Active	2860				
